The subject of the experiment is prostate cancer lesions. As to the kind of experiment: FDG PET imaging of prostate cancer patients (comparison). It counts as in vivo, human. An excerpt: These panels show CT scans (left column) and PET scans (right column). […] However, this is not observed in the Fludeoxyglucose (^18F) PET (lower right panel).
FIGS. 7-9 show CT and PET/CT scan taken from the same patient as from FIG. 6.

In the case of `OC[C@H]1OC(O)[C@H]([18F])[C@@H](O)[C@@H]1O` (some centres unmarked) [Fludeoxyglucose (^18F)], under “patient with metastatic prostate cancer, FIG. 5”, the “PET uptake in bone metastasis, left iliac bone” value is given as “not observed”. Under “patient with prostate carcinoma, FIG. 6”, the “Uptake in skeletal lesions not clearly seen on bone scan” value was “non-FDG avid”.

The values are drawn from US20180088120A1, “Elevated PSMA Identifies Lethal Prostate Cancers” (Cornell University, priority 2012, published 2018).
